From publication PMC5218480 (PLoS ONE, 2017)

Tested on: MV-4-11 cells
Assay: Gene expression microarray analysis (Affymetrix PrimeView) and GSEA
Type: cell-based, human
Set-up: RFU PODN (11730768_x_at) / Fold change /veh PODN (11730768_x_at) / RFU LINC00158 (11744669_a_at) / Fold change /veh LINC00158 (11744669_a_at) / RFU DUSP10 (11751237_a_at) / Fold change /veh DUSP10 (11751237_a_at) / RFU ID3 (11757404_x_at) / Fold change /veh ID3 (11757404_x_at) / RFU PLEKHG5 (11737974_s_at) / Fold change /veh PLEKHG5 (11737974_s_at) / RFU LRRC4B (11730491_at) / Fold change /veh LRRC4B (11730491_at) / RFU GIMAP4 (11747438_a_at) / Fold change /veh GIMAP4 (11747438_a_at) / RFU KRT8 (11758183_x_at) / Fold change /veh KRT8 (11758183_x_at) / RFU CNN1 (11734310_a_at) / Fold change /veh CNN1 (11734310_a_at) / RFU VPS37D (11726825_at) / Fold change /veh VPS37D (11726825_at) / RFU C10orf10 (11716522_x_at) / Fold change /veh C10orf10 (11716522_x_at) / RFU KIR2DL2 /// KIR2DL4 /// KIR2DL5A /// KIR2DL5B /// KIR2DS1 /// KIR2DS2 /// KIR2DS3 /// KIR2DS4 /// KIR3DL3 /// KIR3DL3 /// KIR3DS1 (11738374_at) / Fold change /veh KIR2DL2 /// KIR2DL4 /// KIR2DL5A /// KIR2DL5B /// KIR2DS1 /// KIR2DS2 /// KIR2DS3 /// KIR2DS4 /// KIR3DL3 /// KIR3DL3 /// KIR3DS1 (11738374_at) / RFU C1QL1 (11718748_at) / Fold change /veh C1QL1 (11718748_at) / RFU TMPRSS4 (11747572_a_at) / Fold change /veh TMPRSS4 (11747572_a_at) / RFU HAMP (11756126_x_at) / Fold change /veh HAMP (11756126_x_at) / RFU RNFT2 (11725882_a_at) / Fold change /veh RNFT2 (11725882_a_at) / RFU NR4A2 (11747474_a_at) / Fold change /veh NR4A2 (11747474_a_at) / RFU ABCC12 (11746883_a_at) / Fold change /veh ABCC12 (11746883_a_at) / RFU TMEM136 (11760407_x_at) / Fold change /veh TMEM136 (11760407_x_at) / RFU CLDN22 /// WWC2 (11732394_at) / Fold change /veh CLDN22 /// WWC2 (11732394_at) / RFU HLA-DPB1 (11760878_x_at) / Fold change /veh HLA-DPB1 (11760878_x_at) / RFU SPINT1 (11716480_a_at) / Fold change /veh SPINT1 (11716480_a_at) / RFU GAP43 (11754022_s_at) / Fold change /veh GAP43 (11754022_s_at) / RFU A4GNT (11735810_at) / Fold change /veh A4GNT (11735810_at) / RFU PRB3 (11715151_x_at) / Fold change /veh PRB3 (11715151_x_at) / RFU TUBB4B (11761932_at) / Fold change /veh TUBB4B (11761932_at) / RFU CAPN14 (11732068_a_at) / Fold change /veh CAPN14 (11732068_a_at) / RFU TMCC2 (11721928_a_at) / Fold change /veh TMCC2 (11721928_a_at) / RFU IRGQ (11745062_a_at) / Fold change /veh IRGQ (11745062_a_at) / RFU FAM174B (11720279_a_at) / Fold change /veh FAM174B (11720279_a_at) / RFU TMPRSS4 (11748680_a_at) / Fold change /veh TMPRSS4 (11748680_a_at) / RFU FAM212B (11763350_a_at) / Fold change /veh FAM212B (11763350_a_at) / RFU PLEKHG5 (11743358_a_at) / Fold change /veh PLEKHG5 (11743358_a_at) / RFU ZSCAN30 (11745921_a_at) / Fold change /veh ZSCAN30 (11745921_a_at) / RFU CMKLR1 (11741424_a_at) / Fold change /veh CMKLR1 (11741424_a_at) / RFU LOC101060620 /// MAPK8IP1 (11723275_at) / Fold change /veh LOC101060620 /// MAPK8IP1 (11723275_at) / RFU SPTSSB (11747773_x_at) / Fold change /veh SPTSSB (11747773_x_at) / RFU PRSS12 (11739890_at) / Fold change /veh PRSS12 (11739890_at) / RFU BIN1 (11741810_x_at) / Fold change /veh BIN1 (11741810_x_at) / RFU WNT11 (11732464_a_at) / Fold change /veh WNT11 (11732464_a_at) / RFU C10orf10 (11716521_a_at) / Fold change /veh C10orf10 (11716521_a_at) / RFU C5orf56 (11738089_at) / Fold change /veh C5orf56 (11738089_at) / RFU CYB561 (11721691_x_at) / Fold change /veh CYB561 (11721691_x_at) / RFU ANKRD19P (11752326_a_at) / Fold change /veh ANKRD19P (11752326_a_at) / RFU OR2T12 /// OR2T33 /// OR2T8 (11738714_s_at) / Fold change /veh OR2T12 /// OR2T33 /// OR2T8 (11738714_s_at) / RFU VCAN (11748164_a_at) / Fold change /veh VCAN (11748164_a_at) / RFU JSRP1 (11732532_at) / Fold change /veh JSRP1 (11732532_at) / RFU KRTAP10-11 (11738290_x_at) / Fold change /veh KRTAP10-11 (11738290_x_at) / RFU MYO3A (11730013_a_at) / Fold change /veh MYO3A (11730013_a_at) / RFU EBF3 (11725865_a_at) / Fold change /veh EBF3 (11725865_a_at) / RFU CAMK2N1 (11719241_x_at) / Fold change /veh CAMK2N1 (11719241_x_at) / RFU C5orf56 (11738088_a_at) / Fold change /veh C5orf56 (11738088_a_at) / RFU OLFML3 (11715873_a_at) / Fold change /veh OLFML3 (11715873_a_at) / RFU LOC100653217 /// NTM (11731650_a_at) / Fold change /veh LOC100653217 /// NTM (11731650_a_at) / RFU MAPK11 (11762145_a_at) / Fold change /veh MAPK11 (11762145_a_at) / RFU FIZ1 (11724087_x_at) / Fold change /veh FIZ1 (11724087_x_at) / RFU OASL (11726364_x_at) / Fold change /veh OASL (11726364_x_at) / RFU SOX15 (11748057_x_at) / Fold change /veh SOX15 (11748057_x_at) / RFU CD79A (11719716_a_at) / Fold change /veh CD79A (11719716_a_at) / RFU HIST1H1D (11736915_at) / Fold change /veh HIST1H1D (11736915_at) / RFU CASKIN2 (11723855_a_at) / Fold change /veh CASKIN2 (11723855_a_at) / RFU LOC730098 (11760151_x_at) / Fold change /veh LOC730098 (11760151_x_at) / RFU OR4N2 (11742367_at) / Fold change /veh OR4N2 (11742367_at) / RFU PRRT2 (11749266_a_at) / Fold change /veh PRRT2 (11749266_a_at) / RFU SNX32 (11753110_a_at) / Fold change /veh SNX32 (11753110_a_at) / RFU CDHR5 (11726645_a_at) / Fold change /veh CDHR5 (11726645_a_at) / RFU RCAN1 (11760418_a_at) / Fold change /veh RCAN1 (11760418_a_at) / RFU FAM167A (11723789_a_at) / Fold change /veh FAM167A (11723789_a_at) / RFU FAM26E (11764081_at) / Fold change /veh FAM26E (11764081_at) / RFU ISYNA1 (11749810_s_at) / Fold change /veh ISYNA1 (11749810_s_at) / RFU ACY1 (11761880_at) / Fold change /veh ACY1 (11761880_at) / RFU 11764098_at / Fold change /veh 11764098_at / RFU SAMD14 (11745864_x_at) / Fold change /veh SAMD14 (11745864_x_at) / RFU NPB (11741838_a_at) / Fold change /veh NPB (11741838_a_at) / RFU TMPRSS6 (11731388_a_at) / Fold change /veh TMPRSS6 (11731388_a_at) / RFU KRTAP10-2 (11738614_at) / Fold change /veh KRTAP10-2 (11738614_at) / RFU ARHGAP8 /// PRR5-ARHGAP8 (11727945_x_at) / Fold change /veh ARHGAP8 /// PRR5-ARHGAP8 (11727945_x_at) / RFU KRTAP5-7 /// NADSYN1 (11734609_at) / Fold change /veh KRTAP5-7 /// NADSYN1 (11734609_at) / RFU RASL12 (11751679_a_at) / Fold change /veh RASL12 (11751679_a_at) / RFU CDKN2B (11736163_a_at) / Fold change /veh CDKN2B (11736163_a_at) / RFU PRF1 (11729649_at) / Fold change /veh PRF1 (11729649_at) / RFU, ZNF638 /// ZNF638-IT1 / Fold change vs veh, ZNF638 /// ZNF638-IT1 / RFU, PANK3 / Fold change vs veh, PANK3 / RFU, SH3YL1 / Fold change vs veh, SH3YL1 / RFU, ZEB2 / Fold change vs veh, ZEB2 / RFU, NRIP1 / Fold change vs veh, NRIP1 / RFU, PTTG1IP / Fold change vs veh, PTTG1IP / RFU, CAPN2 / Fold change vs veh, CAPN2 / RFU, MED14 / Fold change vs veh, MED14 / RFU, SNORA58 / Fold change vs veh, SNORA58 / RFU, C1orf63 / Fold change vs veh, C1orf63 / RFU, LRRFIP1 / Fold change vs veh, LRRFIP1 / RFU, NDUFAF7 / Fold change vs veh, NDUFAF7 / RFU, SLC12A2 / Fold change vs veh, SLC12A2 / RFU, IBTK / Fold change vs veh, IBTK / RFU, ESF1 / Fold change vs veh, ESF1 / Fold change vs veh, TMEM50B / RFU, TAOK1 / Fold change vs veh, TAOK1 / RFU, ACBD3 / Fold change vs veh, ACBD3 / RFU, TMA16 / Fold change vs veh, TMA16 / RFU, RWDD3 / Fold change vs veh, RWDD3 / RFU, BCAT1 / Fold change vs veh, BCAT1 / RFU, EDEM3 / Fold change vs veh, EDEM3 / RFU, TMEM33 / Fold change vs veh, TMEM33 / RFU, WDR75 / Fold change vs veh, WDR75 / RFU, AHCTF1 / Fold change vs veh, AHCTF1 / RFU, TFRC / Fold change vs veh, TFRC / RFU, ZDHHC17 / Fold change vs veh, ZDHHC17 / RFU, NOM1 / Fold change vs veh, NOM1 / RFU, ARL8B / Fold change vs veh, ARL8B / RFU, ZBTB11 / Fold change vs veh, ZBTB11 / RFU, TAMM41 / Fold change vs veh, TAMM41 / RFU, KIAA1704 /// LOC100996395 / Fold change vs veh, KIAA1704 /// LOC100996395 / RFU, ING1 / Fold change vs veh, ING1 / RFU, TRMT61B / Fold change vs veh, TRMT61B / RFU, FUBP3 / Fold change vs veh, FUBP3 / RFU, TP53 / Fold change vs veh, TP53 / RFU, TNKS2 / Fold change vs veh, TNKS2 / RFU, ZFP14 / Fold change vs veh, ZFP14 / RFU, ACTR2 / Fold change vs veh, ACTR2 / RFU, PPP3R1 / Fold change vs veh, PPP3R1 / RFU, PIK3R1 / Fold change vs veh, PIK3R1 / RFU, HNRNPA1 / Fold change vs veh, HNRNPA1 / RFU, RNF170 / Fold change vs veh, RNF170 / RFU, ZNF28 / Fold change vs veh, ZNF28 / RFU, RNGTT / Fold change vs veh, RNGTT / RFU, OGT / Fold change vs veh, OGT / RFU, BRD1 / Fold change vs veh, BRD1 / RFU, MARS / Fold change vs veh, MARS / RFU, ZNF655 / Fold change vs veh, ZNF655 / RFU, FAHD1 / Fold change vs veh, FAHD1 / RFU, BDP1 / Fold change vs veh, BDP1 / RFU, LRRCC1 / Fold change vs veh, LRRCC1 / RFU, ARID1A / Fold change vs veh, ARID1A / RFU, ZNF146 / Fold change vs veh, ZNF146 / RFU, ZNF330 / Fold change vs veh, ZNF330 / RFU, GPN3 / Fold change vs veh, GPN3 / RFU, C9orf123 / Fold change vs veh, C9orf123 / RFU, N4BP2L2 / Fold change vs veh, N4BP2L2 / RFU, ARFIP1 / Fold change vs veh, ARFIP1 / RFU, FAM179B / Fold change vs veh, FAM179B / RFU, BCL10 / Fold change vs veh, BCL10 / RFU, UHRF1BP1L / Fold change vs veh, UHRF1BP1L / RFU, BET1 / Fold change vs veh, BET1 / RFU, CNOT2 / Fold change vs veh, CNOT2 / RFU, ZNF268 / Fold change vs veh, ZNF268 / Fold change vs veh, ZNF507 / RFU, DGCR2 / Fold change vs veh, DGCR2 / RFU, WDSUB1 / Fold change vs veh, WDSUB1 / Fold change vs veh, HSP90B1 /// MIR3652 / RFU, ADSS / Fold change vs veh, ADSS / RFU, GK / Fold change vs veh, GK / RFU, ZNF148 / Fold change vs veh, ZNF148 / RFU, TAF9 / Fold change vs veh, TAF9 / RFU, SLC1A5 / Fold change vs veh, SLC1A5 / RFU, SLMO2 / Fold change vs veh, SLMO2 / RFU, ABCC4 / Fold change vs veh, ABCC4 / RFU, LOC101060439 /// RAP1B / Fold change vs veh, LOC101060439 /// RAP1B / RFU, RFX7 / Fold change vs veh, RFX7 / RFU, GTPBP10 / Fold change vs veh, GTPBP10 / RFU, CNEP1R1 / Fold change vs veh, CNEP1R1 / RFU, BIVM-ERCC5 /// ERCC5 / Fold change vs veh, BIVM-ERCC5 /// ERCC5 / RFU, ILF3 / Fold change vs veh, ILF3 / RFU 11762660_at / Fold change /veh 11762660_at / RFU VCAN (11757783_s_at) / Fold change /veh VCAN (11757783_s_at) / RFU DDX43 (11728927_at) / Fold change /veh DDX43 (11728927_at) / RFU KRT8 (11758188_x_at) / Fold change /veh KRT8 (11758188_x_at) / RFU NKD1 (11759106_at) / Fold change /veh NKD1 (11759106_at) / RFU SRD5A1 (11742802_a_at) / Fold change /veh SRD5A1 (11742802_a_at) / RFU TPSAB1 /// TPSB2 (11721975_s_at) / Fold change /veh TPSAB1 /// TPSB2 (11721975_s_at) / RFU GSTM3 (11746129_a_at) / Fold change /veh GSTM3 (11746129_a_at) / RFU IL23R (11737362_x_at) / Fold change /veh IL23R (11737362_x_at) / RFU TMEM51 (11727254_a_at) / Fold change /veh TMEM51 (11727254_a_at) / RFU PIWIL2 (11732686_x_at) / Fold change /veh PIWIL2 (11732686_x_at) / RFU ORM1 (11744905_x_at) / Fold change /veh ORM1 (11744905_x_at) / RFU CCDC152 (11743942_at) / Fold change /veh CCDC152 (11743942_at) / RFU ECM1 (11717891_a_at) / Fold change /veh ECM1 (11717891_a_at) / RFU IL23R (11748794_a_at) / Fold change /veh IL23R (11748794_a_at) / RFU TNFAIP8L3 (11732012_x_at) / Fold change /veh TNFAIP8L3 (11732012_x_at) / RFU MBOAT4 (11741988_at) / Fold change /veh MBOAT4 (11741988_at) / RFU 11764193_at / Fold change /veh 11764193_at / RFU TMEM53 (11763286_at) / Fold change /veh TMEM53 (11763286_at) / RFU MAGEB2 (11727129_at) / Fold change /veh MAGEB2 (11727129_at) / RFU TMEM200A (11744735_a_at) / Fold change /veh TMEM200A (11744735_a_at) / RFU CCDC152 (11751479_a_at) / Fold change /veh CCDC152 (11751479_a_at) / RFU FAM211A (11726209_a_at) / Fold change /veh FAM211A (11726209_a_at) / RFU RGS16 (11746705_a_at) / Fold change /veh RGS16 (11746705_a_at) / RFU VCAN (11755009_s_at) / Fold change /veh VCAN (11755009_s_at) / RFU RHOB (11743442_s_at) / Fold change /veh RHOB (11743442_s_at) / RFU RGS16 (11720943_a_at) / Fold change /veh RGS16 (11720943_a_at) / RFU RGS16 (11720944_at) / Fold change /veh RGS16 (11720944_at) / RFU, VPS4B / Fold change vs veh, VPS4B / RFU, CREB1 / Fold change vs veh, CREB1 / RFU, DNAJC13 / Fold change vs veh, DNAJC13 / RFU, GNAQ / Fold change vs veh, GNAQ / RFU, CDK5R1 / Fold change vs veh, CDK5R1 / RFU, ZRANB3 / Fold change vs veh, ZRANB3 / RFU, CUL4A / Fold change vs veh, CUL4A / RFU, CCNY / Fold change vs veh, CCNY / RFU, UFL1 / Fold change vs veh, UFL1 / RFU, COG3 / Fold change vs veh, COG3 / RFU, DIAPH2 / Fold change vs veh, DIAPH2 / RFU, SKA2 / Fold change vs veh, SKA2 / RFU, AFF3 / Fold change vs veh, AFF3 / RFU, LMF1 / Fold change vs veh, LMF1 / RFU, IPO11 / Fold change vs veh, IPO11 / RFU, DFFB / Fold change vs veh, DFFB / RFU, FOXP1 / Fold change vs veh, FOXP1 / RFU, CARD8 / Fold change vs veh, CARD8 / RFU, STRN3 / Fold change vs veh, STRN3 / RFU, ADK / Fold change vs veh, ADK / RFU, RASSF2 / Fold change vs veh, RASSF2 / RFU, WIPF1 / Fold change vs veh, WIPF1 / RFU, LARP1B / Fold change vs veh, LARP1B / RFU, RASA1 / Fold change vs veh, RASA1 / RFU, RB1 / Fold change vs veh, RB1 / RFU, PPFIA1 / Fold change vs veh, PPFIA1 / RFU, MAT2A / Fold change vs veh, MAT2A / RFU, CCT5 / Fold change vs veh, CCT5 / RFU, WDR92 / Fold change vs veh, WDR92 / RFU, CUX1 / Fold change vs veh, CUX1 / RFU, TTC7A / Fold change vs veh, TTC7A / RFU, TMEM135 / Fold change vs veh, TMEM135 / RFU, DEPTOR / Fold change vs veh, DEPTOR / RFU, CPM / Fold change vs veh, CPM / RFU, DNAJB6 / Fold change vs veh, DNAJB6 / RFU, CACNA2D3 / Fold change vs veh, CACNA2D3 / RFU, DTX4 / Fold change vs veh, DTX4 / RFU, TFCP2 / Fold change vs veh, TFCP2 / RFU, GMCL1 /// GMCL1P1 / Fold change vs veh, GMCL1 /// GMCL1P1 / RFU, AEBP2 / Fold change vs veh, AEBP2 / RFU, SNHG1 /// SNORD22 /// SNORD25 /// SNORD26 /// SNORD27 /// SNORD28 /// SNORD29 /// SNORD31 / Fold change vs veh, SNHG1 /// SNORD22 /// SNORD25 /// SNORD26 /// SNORD27 /// SNORD28 /// SNORD29 /// SNORD31 / Fold change (Aza/veh), C12orf56 (ProbeSet 11735607_a_at) / Fold change (ACY-1035/veh), C12orf56 (ProbeSet 11735607_a_at) / Fold change (Aza/veh), FGFR1OP (ProbeSet 11751329_s_at) / Fold change (ACY-1035/veh), FGFR1OP (ProbeSet 11751329_s_at) / Fold change (Aza/veh), VPS36 (ProbeSet 11739960_a_at) / Fold change (ACY-1035/veh), VPS36 (ProbeSet 11739960_a_at) / RFU SYPL1 (11715823_x_at) / Fold change /veh SYPL1 (11715823_x_at) / RFU IGFBP7 (11715501_s_at) / Fold change /veh IGFBP7 (11715501_s_at) / RFU REEP3 (11722064_at) / Fold change /veh REEP3 (11722064_at) / RFU IGLL1 (11728026_x_at) / Fold change /veh IGLL1 (11728026_x_at): dose or concentration left out as unconfirmed
Settings: ProbeSet 11716931_at; LIST B

In the case of `Nc1ccc(-c2cccs2)cc1NC(=O)c1ccc2c(c1)cc(C1CC1)n2CCN1CCOCC1` [ACY-1035], the “RFU, DGCR2” value is reported as 215.86 RFU.
